Experimental data from ChEMBL document CHEMBL1681738, “Efficient synthesis of triazole moiety-containing nucleotide analogs and their inhibitory effects on a malic enzyme” (Bioorg Med Chem Lett, 2011).
Activity calls are given as the source filed them. The rule behind the calls is not given here.

target: NAD-dependent malic enzyme (Escherichia coli K12) (UniProt P26616); test: Inhibition of Escherichia coli K-12 recombinant NAD-dependent malic enzyme at 0.2 mM
Sequence (P26616 whole entry, looked up): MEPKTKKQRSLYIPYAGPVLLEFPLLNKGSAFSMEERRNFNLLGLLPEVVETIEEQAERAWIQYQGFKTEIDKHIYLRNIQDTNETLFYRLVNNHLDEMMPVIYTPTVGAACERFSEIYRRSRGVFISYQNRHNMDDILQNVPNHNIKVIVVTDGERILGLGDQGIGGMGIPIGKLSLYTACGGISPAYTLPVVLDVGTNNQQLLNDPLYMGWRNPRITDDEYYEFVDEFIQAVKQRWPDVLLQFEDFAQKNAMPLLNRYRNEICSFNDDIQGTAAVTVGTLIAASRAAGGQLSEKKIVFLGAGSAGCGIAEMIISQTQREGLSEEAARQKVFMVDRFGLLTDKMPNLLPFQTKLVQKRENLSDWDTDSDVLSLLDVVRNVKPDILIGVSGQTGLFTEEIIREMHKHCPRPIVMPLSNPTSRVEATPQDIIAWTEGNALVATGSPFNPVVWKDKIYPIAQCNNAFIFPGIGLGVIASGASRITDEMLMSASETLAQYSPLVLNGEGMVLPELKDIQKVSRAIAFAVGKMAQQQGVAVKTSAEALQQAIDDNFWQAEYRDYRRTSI

inhibition, active:
O=P(O)(O)OC[C@H]1O[C@@H](n2cc(-c3ccc(F)cc3)nn2)[C@H](O)[C@@H]1O, Nc1ccccc1-c1cn([C@@H]2O[C@H](COP(=O)(O)O)[C@@H](O)[C@H]2O)nn1, O=P(O)(O)OC[C@H]1O[C@@H](n2cc(CCO)nn2)[C@H](O)[C@@H]1O, COc1ccc(-c2cn([C@@H]3O[C@H](COP(=O)(O)O)[C@@H](O)[C@H]3O)nn2)cc1, Cc1ccccc1-c1cn([C@@H]2O[C@H](COP(=O)(O)O)[C@@H](O)[C@H]2O)nn1, CC(=O)NCc1cn([C@@H]2O[C@H](COP(=O)(O)O)[C@@H](O)[C@H]2O)nn1, O=P(O)(O)OC[C@H]1O[C@@H](n2cc(-c3ccccc3C(F)(F)F)nn2)[C@H](O)[C@@H]1O, O=P(O)(O)OC[C@H]1O[C@@H](n2cc(-c3ccccc3)nn2)[C@H](O)[C@@H]1O, O=C(NCc1cn([C@@H]2O[C@H](COP(=O)(O)O)[C@@H](O)[C@H]2O)nn1)c1ccccc1, O=P(O)(O)OC[C@H]1O[C@@H](n2cc(-c3ccccc3F)nn2)[C@H](O)[C@@H]1O, O=P(O)(O)OC[C@H]1O[C@@H](n2cc(-c3cccc4ccccc34)nn2)[C@H](O)[C@@H]1O
